Values quoted from earlier work as cited in patent publication EP3360549A1, “SMALL MOLECULE THERAPEUTICS FOR TREATING METACHROMATIC LEUKODYSTROPHY” (Rheinische Friedrich-Wilhelms-Universität Bonn, priority 2017, dated 2018).

Tested on: sulfatides
Conditions: mice, brain; reduction, along with cerebrosides and sphingomyelin

CC(=O)CC(c1ccccc1)c1c(O)c2ccccc2oc1=O (stereo not shown) [Warfarin]
reduce the levels of sulfatides: 33%
